Data as given in PMC4336331, “Novel Receptor-Derived Cyclopeptides to Treat Heart Failure Caused by Anti-β1-Adrenoceptor Antibodies in a Human-Analogous Rat Model” (PLoS ONE, 2015).
Peptide text beside a SMILES is read from it.

Experiments:
[1] = system: anti-β1EC2-induced heart failure (β1EC2/GST-FP-immunised rats); assay: Left heart catheterisation (haemodynamics), prevention-study; type: in vivo, Lewis/CrlBR rats; conditions: LV catheterisation month 16, mean ±SEM
Description: In brief, n = 76 two months old Lewis/CrlBR rats were either s.c. immunised with 50 μg β1EC2/GST-FP, or n = 38 rats were control-injected with 0.9% NaCl (t = 0). To maintain high anti-β1EC2-titers, all immunised rats were boosted with β1EC2/GST-FP (or 0.9% NaCl) every month over 20 months as previously described. Application of the different linear or cyclic β1-AR peptides (corresponding to the primary AA-sequence of either the first (β1EC1) or the 2nd extra-cellular β1-AR loop (β1EC2)) or the β1-receptor blocker bisoprolol was initiated either 6 weeks after the 1st immunisation (i.e. 15 days after the 1st boost, prevention-study), or 8.5 months after the 1st immunisation (therapy-study).

β1-AR mRNA = assay: qRT-PCR of cardiac β1-AR mRNA, therapy-study; type: in vivo, Lewis/CrlBR rats; conditions: qRT-PCR normalised to GAPDH (Fig. 4C)
[2] = system: anti-β1EC2-induced heart failure (β1EC2/GST-FP-immunised rats); assay: Heart histology (fibrotic scars, TUNEL, mast cells), therapy-study; type: in vivo, Lewis/CrlBR rats; conditions: for number of myocardial fibrotic scars, in words: midventricular 2μm-sections (Fig. 3A and B); for TUNEL-positive apopotic cells, in words: midventricular 2μm-sections (Fig. 3C); for increase in cardiac mast cells, in words: toluidine blue, mono- or co-treatment (Fig. 3E)
From the text: Fig 3 Histology of rat hearts (therapy-study). (A) Representative H&E-stained 2μm cross-sections of hearts (from the left to the right) from a control rat, an immunised untreated rat, a bisoprolol- and a β1EC2-CP mono-treated rat, and a β1EC2-CP/bisoprolol co-treated rat. (B) Quantification of fibrotic scars in midventricular 2μm-sections (mvhs, mid-ventricular heart-section). Columns ± error bars represent the mean number of fibrotic scars ±SEM per 3 heart sections in the indicated groups. (C) TUNEL-assay with 2μm-mvhs. Columns ± error bars represent mean numbers ±SEM of apoptotic cells (kind of cells not specified) /3 mvhs. (D) qRT-PCR of apical cardiac tissues. Columns ± error bars represent the expression of the indicated pro-fibrotic markers ±SEM in the indicated treatment-groups normalised to controls. (E) Mast cells in 2μm paraffin-mvhs from the indicated treatment-groups; columns ± error bars represent the mean numbers ±SEM of mast cells/mm^2 cardiac tissue. For all parameters shown, differences between the treatment-groups were assessed by […] one way ANOVA and Dunnett`s post-hoc test; *p<0.05; **p<0.001.

[3] = system: anti-β1EC2-induced β1-AR/cAMP signaling in HEKβ1-cells; assay: FRET cAMP assay (Epac1-camps), blockade of anti-β1EC2-induced signals; type: cell-based, human; conditions: HEKβ1-cells with Epac1-camps FRET-sensor; IgG pre-incubated with peptide (Fig. 1F)
Description: The effects of anti-β1EC2 on β1AR-mediated intracellular cAMP-production were assessed by measuring fluorescence resonance energy transfer (FRET) in HEKβ1-cells transiently transfected with a FRET-sensor for cAMP, Epac1-camps. The sensor consists of the cAMP-binding protein Epac1 flanked by enhanced cyan or yellow fluorescent protein. […] IgG-preparations were added to the cells at 0.13 μg/μl protein concentration; 2μM (-)isoproterenol (Sigma) was used as a reference to determine the maximal cAMP-response. To test the blocking-efficacy of β1EC2-CP on anti-β1EC2-induced adrenergic signaling, the different IgG-preparations were pre-incubated with β1EC2-CP (20 μg/μl) for 6 h at 4 °C; for pharmacological blockade of anti-β1EC2-induced signals we utilised 5.0μM bisoprolol.
(D) Immunostaining experiments with rat anti- β1EC2 (1:100) using HEK-cells stably expressing β1-ARs (HEK β1) or not (wild type; HEK WT). IgG was prepared from anti- β1EC2-positive rats or 0.9% NaCl-injected control rats. Amino-terminal β1AR-specific rabbit anti-bodies (1:250) served as positive controls. […] HEK β1-cells were transfected with the cAMP-sensor Epac1-camps, which reacts to cAMP-binding with a reduction in fluorescence resonance energy transfer (FRET) between its fluorophores cyan (CFP) and yellow fluorescent protein (YFP). […] Representative FRET-ratio traces of 1/5 experiments are shown. Values are given in % of maximal cAMP-response achieved with 0.3μM (-)isoproterenol (Iso).

[4] = Half-life of β1EC2-peptides in rat whole blood ex vivo; conditions: for Half-life in whole blood, in words: ex vivo incubation experiments with whole blood (Fig. 1G); for half-life: rat, whole blood
[5] = Plasma half-life in vivo of 123I-(tyrosine)-labeled peptides; conditions: 123I-(tyrosine)-labeled peptide, 1.4 to 1.8 MBq/animal injected; central venous blood samples gamma-counted 2, 4, 6, 8, 10, 20, 30, 60 min after injection; difference n.s.
[6] = immunised anti-β1EC2-positive rats, from 6 weeks after 1st immunisation EC2-CP 1.0 mg/kg i.v. every 4 weeks or bisoprolol 15 mg/kg/day orally over 12 months
[7] = non-immunised 0.9% NaCl-injected rats, EC2-CP 1.0 mg/kg i.v. every 4 weeks or bisoprolol 15 mg/kg/day orally over 12 months

In the case of `CC(C)NCC(O)COc1ccc(COCCOC(C)C)cc1` (stereo not shown) [bisoprolol, reference compound], the “+dP/dt (contractilility)” value [1, 6] is reported as 6768 ±106 mmHg/s, the “-dP/dt (relaxation)” value [1, 6] is reported as 5532 ±78 mmHg/s and the “HF (heart frequence)” value [1, 6] is reported as 178 ±9 bpm. The “LVEDP (LV end-diastolic pressure)” value [1, 6] was 8.3 ±0.6 mmHg, the “LVSP (maximal systolic LV-pressure)” value [1, 6] was 106 ±3 mmHg and the “+dP/dt (contractilility)” value [1, 7] was 7012 ±419 mmHg/s. For the same compound, the “-dP/dt (relaxation)” value [1, 7] was 5619 ±155 mmHg/s, the “HF (heart frequence)” value [1, 7] was 173 ±17 bpm and the “LVEDP (LV end-diastolic pressure)” value [1, 7] was 10.6 ±1.5 mmHg. The “LVSP (maximal systolic LV-pressure)” value [1, 7] was 107 ±11 mmHg, the “cardiac β1-AR mRNA-levels, in words” value (β1-AR mRNA) was “returned to normal levels” and the “number of myocardial fibrotic scars, in words” value [2] was “not seen”. For the same compound, the “TUNEL-positive apopotic cells, in words” value [2] was “not seen” and the “increase in cardiac mast cells, in words” value [2] was “reversed to control levels”.

For `CC(C)[C@@H]1NC(=O)[C@H](Cc2ccccc2)NC(=O)[C@H](CC(=O)O)NC(=O)[C@H](CS)NC(=O)[C@H](CS)NC(=O)[C@H](CCCCN)NC(=O)[C@@H]2CCCN2C(=O)[C@H](CC(=O)O)NC(=O)[C@H](CC(N)=O)NC(=O)[C@H](Cc2ccc(O)cc2)NC(=O)[C@H](CS)NC(=O)[C@H](CCCNC(=N)N)NC(=O)[C@H](CCCNC(=N)N)NC(=O)[C@H](C)NC(=O)[C@H](CCC(=O)O)NC(=O)[C@H](CC(=O)O)NC(=O)[C@H](CO)NC(=O)[C@H](CCC(=O)O)NC(=O)[C@H](C)NC(=O)[C@H](CCCNC(=N)N)NC(=O)[C@H](C)NC(=O)[C@H](CCC(N)=O)NC(=O)CNC(=O)[C@H](CCCNC(=N)N)NC(=O)[C@H](CC(N)=O)NC(=O)[C@H]([C@@H](C)O)NC1=O` [β1EC2-CP] (cyclo(AESDEARRCYNDPKCCDFVTNRGQAR)), the “-dP/dt (relaxation)” value [1, 6] was 5887 ±93 mmHg/s, the “HF (heart frequence)” value [1, 6] was 226 ±5 bpm and the “LVEDP (LV end-diastolic pressure)” value [1, 6] was 10.4 ±0.6 mmHg. The “LVSP (maximal systolic LV-pressure)” value [1, 6] was 127 ±4 mmHg, the “-dP/dt (relaxation)” value [1, 7] was 5986 ±288 mmHg/s and the “HF (heart frequence)” value [1, 7] was 232 ±7 bpm. The “LVEDP (LV end-diastolic pressure)” value [1, 7] was 10.1 ±1.4 mmHg, the “LVSP (maximal systolic LV-pressure)” value [1, 7] was 135 ±7 mmHg and the “cardiac β1-AR mRNA-levels, in words” value (β1-AR mRNA) was “returned to normal levels”. The “blockade of anti-β1EC2-induced cAMP-signals, in words” value [3] was “inhibited”, the “number of myocardial fibrotic scars, in words” value [2] was “returned to normal levels” and the “TUNEL-positive apopotic cells, in words” value [2] was “returned to normal levels”. The “increase in cardiac mast cells, in words” value [2] was “reversed to control levels”, the “Half-life in whole blood, in words” value [4] was “days” and the half-life [4] was 20.2 days. The “plasma-half life in vivo (t ½)” value [5] was 8.1 ± 2.8 min.

For `CC(C)[C@H](NC(=O)[C@H](Cc1ccccc1)NC(=O)[C@H](CC(=O)O)NC(=O)[C@H](CS)NC(=O)[C@H](CS)NC(=O)[C@H](CCCCN)NC(=O)[C@@H]1CCCN1C(=O)[C@H](CC(=O)O)NC(=O)[C@H](CC(N)=O)NC(=O)[C@H](Cc1ccc(O)cc1)NC(=O)[C@H](CS)NC(=O)[C@H](CCCNC(=N)N)NC(=O)[C@H](CCCNC(=N)N)NC(=O)[C@H](C)NC(=O)[C@H](CCC(=O)O)NC(=O)[C@H](CC(=O)O)NC(=O)[C@H](CO)NC(=O)[C@H](CCC(=O)O)NC(=O)[C@H](C)NC(=O)[C@H](CCCNC(=N)N)NC(=O)[C@H](C)N)C(=O)N[C@H](C(=O)N[C@@H](CC(N)=O)C(=O)N[C@@H](CCCNC(=N)N)C(=O)NCC(N)=O)[C@@H](C)O` [β1EC2-Lin] (H-ARAESDEARRCYNDPKCCDFVTNRG-NH2; N-terminus and C-terminus assumed), the “blockade of anti-β1EC2-induced cAMP-signals, in words” value [3] was “inhibited”, the “Half-life in whole blood, in words” value [4] was “hours” and the half-life [4] was 0.167 days. The “plasma-half life in vivo (t ½)” value [5] was 3.9 ± 2.2 min.
